In patent US12643887B2, “Heterocyclic derivatives with cardiomyocyte proliferation activity for treatment of heart diseases” (Tongji University, priority 2019, dated 2026):

Assays:
human GSK3 beta = biological target: T1, human GSK3 beta (Homo sapiens, UniProt P49841); assay: GSK3 beta enzyme assay (ADP-Glo); format: biochemical; conditions: ATP 25 μM, read-out: GSK3b IC50
T1 construct: Recombinant full-length human GSK3 beta (expressed in Sf9 insect cells with an N-terminal His tag); His (N); purchased SignalChem G09-10H; host or cells: Sf9 insect cells
T1 sequence (P49841 whole entry): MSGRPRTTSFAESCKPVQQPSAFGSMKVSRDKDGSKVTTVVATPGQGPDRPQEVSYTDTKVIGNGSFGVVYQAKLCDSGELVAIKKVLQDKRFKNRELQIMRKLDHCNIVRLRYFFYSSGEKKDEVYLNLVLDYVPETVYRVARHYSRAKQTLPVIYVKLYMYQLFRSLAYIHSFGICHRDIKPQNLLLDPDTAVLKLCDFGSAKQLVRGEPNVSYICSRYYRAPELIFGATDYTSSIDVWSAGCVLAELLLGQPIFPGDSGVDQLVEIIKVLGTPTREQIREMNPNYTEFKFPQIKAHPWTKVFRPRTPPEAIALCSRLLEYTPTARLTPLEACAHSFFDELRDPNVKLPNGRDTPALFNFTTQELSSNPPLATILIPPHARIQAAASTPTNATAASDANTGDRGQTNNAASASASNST
Method in brief: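 Full-length His-tagged human GSK3β from Sf9 cells (4 nM) preincubated 30 min at 25 °C with inhibitor in Tris pH 7.5/MgCl2/BSA/DTT, then reacted 60 min at 25 °C with 13 μM substrate peptide and 25 μM ATP. ADP measured by ADP-Glo luminescence; IC50 from four-parameter logistic fit of % inhibition.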

human HIPK2 = biological target: T2, human HIPK2 (Homo sapiens, UniProt Q9H2X6); assay: HIPK2 enzyme assay (ADP-Glo); format: biochemical; conditions: ADP-Glo, ATP 5 μM; read-out: HIPK2 IC50
T2 construct: Recombinant human HIPK2 (1-640); GST (N); purchased SignalChem H04-11BG; host or cells: Sf9 insect cells
T2 sequence (Q9H2X6 1-640): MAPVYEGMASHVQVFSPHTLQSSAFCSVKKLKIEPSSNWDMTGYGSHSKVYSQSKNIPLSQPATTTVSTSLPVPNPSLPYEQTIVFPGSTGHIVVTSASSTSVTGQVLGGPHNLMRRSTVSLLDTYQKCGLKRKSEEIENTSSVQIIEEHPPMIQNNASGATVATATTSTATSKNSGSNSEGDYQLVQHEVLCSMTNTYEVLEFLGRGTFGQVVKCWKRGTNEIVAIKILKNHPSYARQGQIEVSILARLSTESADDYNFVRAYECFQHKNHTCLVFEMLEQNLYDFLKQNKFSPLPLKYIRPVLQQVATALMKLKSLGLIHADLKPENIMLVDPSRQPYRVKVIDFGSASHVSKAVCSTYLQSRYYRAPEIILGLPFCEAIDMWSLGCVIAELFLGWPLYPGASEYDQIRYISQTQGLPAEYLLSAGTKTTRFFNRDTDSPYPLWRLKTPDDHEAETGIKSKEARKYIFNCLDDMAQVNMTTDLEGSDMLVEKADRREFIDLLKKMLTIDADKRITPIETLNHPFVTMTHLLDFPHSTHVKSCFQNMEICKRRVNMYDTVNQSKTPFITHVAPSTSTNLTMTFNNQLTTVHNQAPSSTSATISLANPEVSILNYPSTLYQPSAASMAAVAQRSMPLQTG
Method in brief: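 GST-tagged HIPK2 (1-640) from Sf9, 1 nM, preincubated 30 min at 25° C with inhibitor in 40 mM Tris pH 7.5, 20 mM MgCl2. Reaction ran 90 min at 25° C with GST-MBP substrate at 0.05 mg/ml and 5 μM ATP. ADP-Glo luminescence; IC50 by four-parameter logistic fit.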

Row | SMILES | IC50 (human GSK3 beta) [µM] | IC50 (human HIPK2) [µM]
1 | O=C1NC(N(CC2CC2)c2ccccc2)=N/C1=C\c1ccc2c(c1)OCCO2 [Example 39, (Z)-2-((cyclopropylmethyl)(phenyl)amino)-5-((2,3-dihydrobenzo[b][1,4]dioxin-6-yl)methylene)-3,5-dihydro-4H-imidazol-4-one] | > 10 | > 10
2 | Cn1ncc2ccc(/C=C3\N=C(Nc4ccc5ncsc5c4)NC3=O)cc21 [Example 80, (Z)-2-(benzo[d]thiazol-6-ylamino)-5-((1-methyl-1H-indazol-6-yl)methylene)-3,5-dihydro-4H-imidazol-4-one] | > 10 | > 10
3 | O=C1NC(Nc2ccc3[nH]ccc3c2)=N/C1=C\c1ccc2ncsc2c1 [Example 69, (Z)-2-((1H-indol-5-yl)amino)-5-(benzo[d]thiazol-6-ylmethylene)-3,5-dihydro-4H-imidazol-4-one] | 0.1 to 1 | < 0.1
4 | CN(CC1CC1)C1=N/C(=C\c2ccc3ncsc3c2)C(=O)N1 [Example 33, (Z)-5-(benzo[d]thiazol-6-ylmethylene)-2-((cyclopropylmethyl)(methyl)amino)-3,5-dihydro-4H-imidazol-4-one] | > 10 | 1 to 10
5 | CC(C)NC1=N/C(=C\c2ccc3scnc3c2)C(=O)N1 [Example 49, (Z)-5-(benzo[d]thiazol-5-ylmethylene)-2-(isopropylamino)-3,5-dihydro-4H-imidazol-4-one] | > 10 | > 10
6 | CN(C1=N/C(=C\c2ccc3c(c2)OCCO3)C(=O)N1)c1ccc2ncsc2c1 [Example 84, (Z)-2-(benzo[d]thiazol-6-yl(methyl)amino)-5-((2,3-dihydrobenzo[b][1,4]dioxin-6-yl)methylene)-3,5-dihydro-4H-imidazol-4-one] | 1 to 10 | 1 to 10
7 | CN(C1=N/C(=C\c2ccc3[nH]cnc3c2)C(=O)N1)c1ccccc1 [Example 30, (Z)-5-((1H-benzo[d]imidazol-5-yl)methylene)-2-(methyl(phenyl)amino)-3,5-dihydro-4H-imidazol-4-one] | > 10 | > 10
8 | O=C1NC(Nc2ccccc2)=N/C1=C\c1cncs1 [Example 15, (Z)-2-(phenylamino)-5-(thiazol-5-ylmethylene)-3,5-dihydro-4H-imidazol-4-one] | > 10 | > 10
9 | O=C1NC(N(CC2CC2)c2ccc3ncsc3c2)=N/C1=C\c1ccc2ncsc2c1 [Example 105, (Z)-2-(benzo[d]thiazol-6-yl(cyclopropylmethyl)amino)-5-(benzo[d]thiazol-6-ylmethylene)-3,5-dihydro-4H-imidazol-4-one] | > 10 | > 10
10 | Cn1cnc2cc(NC3=N/C(=C\c4ccc5ncsc5c4)C(=O)N3)ccc21 [Example 61, (Z)-5-(benzo[d]thiazol-6-ylmethylene)-2-((1-methyl-1H-benzo[d]imidazol-5-yl)amino)-3,5-dihydro-4H-imidazol-4-one] | 0.1 to 1 | 0.1 to 1
11 | Cn1ncc2cc(/C=C3\N=C(Nc4ccccc4)NC3=O)ccc21 [Example 77, (Z)-5-((1-methyl-1H-indazol-5-yl)methylene)-2-(phenylamino)-3,5-dihydro-4H-imidazol-4-one] | > 10 | > 10
12 | CN(C1=N/C(=C\c2ccc3ncsc3c2)C(=O)N1)c1ccc(N)cc1 [Example 44, (Z)-2-((4-aminophenyl)(methyl)amino)-5-(benzo[d]thiazol-6-ylmethylene)-3,5-dihydro-4H-imidazol-4-one] | 1 to 10 | 1 to 10
13 | O=C(O)CCN(C1=N/C(=C\c2ccc3c(c2)OCO3)C(=O)N1)c1ccccc1 [Example 27, (Z)-3-((4-(benzo[d][1,3]dioxol-5-ylmethylene)-5-oxo-4,5-dihydro-1H-imidazol-2-yl)(phenyl)amino)propanoic acid] | > 10 | 1 to 10
14 | O=C1NC(Nc2ccccc2)=N/C1=C\c1ccc(=O)[nH]c1 [Example 9, (Z)-5-((5-oxo-2-(phenylamino)-1,5-dihydro-4H-imidazol-4-ylidene)methyl)pyridin-2(1H)-one] | > 10 | > 10
15 | CN(C1=N/C(=C\c2ccc3ncsc3c2)C(=O)N1)c1ccccc1 [Example 7, (Z)-5-(benzo[d]thiazol-6-ylmethylene)-2-(methyl(phenyl)amino)-3,5-dihydro-4H-imidazol-4-one] | 1 to 10 | 1 to 10
16 | O=C1NC(Nc2ccccc2)=N/C1=C\c1ccc2cn[nH]c2c1 [Example 54, (Z)-5-((1H-indazol-6-yl)methylene)-2-(phenylamino)-3,5-dihydro-4H-imidazol-4-one] | > 10 | > 10
17 | O=C1NC(N(Cc2ccccc2)c2ccccc2)=N/C1=C\c1ccc2ncsc2c1 [Example 41, (Z)-5-(benzo[d]thiazol-6-ylmethylene)-2-(benzyl(phenyl)amino)-3,5-dihydro-4H-imidazol-4-one] | 1 to 10 | 1 to 10
18 | O=C1NC(Nc2ccccc2)=N/C1=C\c1ccc2nccnc2c1 [Example 16, (Z)-2-(phenylamino)-5-(quinoxalin-6-ylmethylene)-3,5-dihydro-4H-imidazol-4-one] | 1 to 10 | 1 to 10
19 | O=C1NC(N(Cc2ccccc2)c2ccccc2)=N/C1=C\c1ccc2[nH]cnc2c1 [Example 35, (Z)-5-((1H-benzo[d]imidazol-5-yl)methylene)-2-(benzyl(phenyl)amino)-3,5-dihydro-4H-imidazol-4-one] | > 10 | > 10
20 | CN(C1=N/C(=C\c2ccc3c(c2)OCO3)C(=O)N1)c1ccc(N)cc1 [Example 37, (Z)-2-((4-aminophenyl)(methyl)amino)-5-(benzo[d][1,3]dioxol-5-ylmethylene)-3,5-dihydro-4H-imidazol-4-one] | > 10 | > 10
21 | CN(C1=N/C(=C\c2ccc3c(c2)OCCO3)C(=O)N1)c1ccccc1 [Example 8, (Z)-5-((2,3-dihydrobenzo[b][1,4]dioxin-6-yl)methylene)-2-(methyl(phenyl)amino)-3,5-dihydro-4H-imidazol-4-one] | > 10 | > 10
